Measured values from publication PMC4317639, “In Vitro Gender-Dependent Inhibition of Porcine Cytochrome P450 Activity by Selected Flavonoids and Phenolic Acids” (BioMed Research International, 2015).

Assays:
porcine CYP3A = experiment: Inhibition of CYP3A activity (7-benzyloxy-4-trifluoromethylcoumarin O-dealkylation) in porcine hepatic microsomes; type: in vitro ADME, pig; settings: for effect on CYP3A activity: 16 μM compound, hepatic microsomes from male and female pigs, 10 μM BFC; for reversibility of CYP3A inhibition (effect of a preincubation step): 5 min preincubation with NADPH at 37°C, male and female pigs; for Ki: pig, inhibitor 16, 32, 128 μM, BFC 0.1-150 μM
Method: (§1) Microsomes were prepared with a calcium aggregation method using Tris-EDTA homogenization buffer. Experiments were performed using pools of microsomes consisting of microsomes from two individual pigs. The total microsomal protein concentration was analyzed the same day using a commercially available kit (Bio-Rad Laboratories Inc., Hercules, CA, USA) according to the manufacturer's instructions. Microsomes were diluted to a protein concentration of 10 mg/mL and stored at −80°C until analysis.
(§2) Specific CYP450 activities were determined by incubating microsomes (diluted in 0.5 M potassium phosphate buffer (pH 7.4)) and adding 0.5 mM NADPH together with one of the following selective substrates (specific CYP450 target given in parentheses): 2 μM 7-ethoxyresorufin (CYP1A), 200 μM coumarin (CYP2A), 10 μM 7-benzyloxy-4-trifluoromethylcoumarin (CYP3A), and 200 μM p-nitrophenol (CYP2E1). […] The corresponding metabolites were quantified by HPLC as previously described.
(§3) For quercetin, this concentration is approximately what can be found in liver of pigs fed a single dose of a quercetin enriched diet. The stock solutions of these compounds were prepared in methanol, and the final concentration of methanol was 0.1% in the incubation volumes. The same amount of methanol was added to the control incubations. Percentage inhibitions were calculated as differences between the activities in the control incubations (arbitrarily set to 100%) and in the presence of the specific compound.
(§4) For that microsomes were preincubated with the tested compound in the presence of NADPH for 5 min (CYP1A, CYP3A) or 15 min (CYP2E1) at 37°C before the addition of specific substrate. […] The incubation time and the amount of the microsomal protein were in the linear range for the rate of metabolite formation. All measurements were performed in duplicate.
(§5) Kinetic parameters (Michaelis-Menten constant K m, maximal velocity of the reaction V max, and dissociation constant for inhibitor binding K i) were estimated by fitting data to the Michaelis-Menten equation using GraphPad Prism (version 4.0 for Windows, GraphPad Software (San Diego, California, USA)). Visual inspection of the plots was used to estimate whether inhibition degree was affected by inclusion of the preincubation step.

porcine CYP2E1 = porcine CYP2E1 (Sus scrofa, UniProt P79383); experiment: Inhibition of CYP2E1 activity (p-nitrophenol hydroxylation) in porcine hepatic microsomes; type: in vitro ADME, pig; settings: for effect on CYP2E1 activity: 16 μM compound
Method: as §1, §2, §3, §4, §5

porcine CYP1A = experiment: Inhibition of CYP1A activity (7-ethoxyresorufin O-deethylation) in porcine hepatic microsomes; type: in vitro ADME, pig; settings: for effect of a preincubation step on inhibition of CYP1A: 5 min preincubation with NADPH at 37°C, male and female pigs; for effect of a preincubation step on inhibition of CYP1A / Ki: inhibitor 16, 32, 128 μM; for Ki: 7-ethoxyresorufin 0.1-4 μM; for effect on CYP1A activity: 16 μM compound, hepatic microsomes from male and female pigs, 2 μM 7-ethoxyresorufin
Method: as §1, §2, §3, §4, §5

porcine CYP2A = settings: 16 μM compound; hepatic microsomes from male and female pigs; 200 μM coumarin
Method: as §1
Specific CYP450 activities were determined by incubating microsomes (diluted in 0.5 M potassium phosphate buffer (pH 7.4)) and adding 0.5 mM NADPH together with one of the following selective substrates (specific CYP450 target given in parentheses): 2 μM 7-ethoxyresorufin (CYP1A), 200 μM coumarin (CYP2A), 10 μM 7-benzyloxy-4-trifluoromethylcoumarin (CYP3A), and 200 μM p-nitrophenol (CYP2E1). For kinetic studies, concentrations of 7-ethoxyresorufin varied from 0.05 to 4 μM, concentrations of p-nitrophenol varied from 2.5 to 4000 μM, and concentrations of BFC varied from 0.1 to 150 μM. The corresponding metabolites were quantified by HPLC as previously described.
as §3

[1] = hepatic microsomes from male and female pigs, 200 μM p-nitrophenol
[2] = pig, pH 7.4, hepatic microsomes from female pigs
[3] = pig, pH 7.4, hepatic microsomes from male pigs
[4] = hepatic microsomes from female pigs

porcine CYP2E1, sequence (P79383 whole entry): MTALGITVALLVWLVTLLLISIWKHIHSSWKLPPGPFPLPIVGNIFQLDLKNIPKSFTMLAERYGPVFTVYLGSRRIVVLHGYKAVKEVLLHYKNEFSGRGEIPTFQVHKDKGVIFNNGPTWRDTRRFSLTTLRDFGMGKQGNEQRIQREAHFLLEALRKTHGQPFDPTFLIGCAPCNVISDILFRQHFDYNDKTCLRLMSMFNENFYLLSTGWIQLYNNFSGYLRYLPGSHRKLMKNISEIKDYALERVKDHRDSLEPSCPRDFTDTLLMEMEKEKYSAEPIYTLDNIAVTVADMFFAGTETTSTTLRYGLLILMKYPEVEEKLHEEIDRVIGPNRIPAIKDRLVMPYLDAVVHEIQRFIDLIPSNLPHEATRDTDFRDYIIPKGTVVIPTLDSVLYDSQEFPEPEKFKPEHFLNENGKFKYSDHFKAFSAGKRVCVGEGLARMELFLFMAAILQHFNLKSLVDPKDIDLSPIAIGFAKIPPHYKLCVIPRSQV

O=C(O)c1cc(O)c(O)c(O)c1 [gallic acid] was tested, and the “effect on CYP3A activity” value (porcine CYP3A) was “did not alter activity” and the “effect on CYP2E1 activity” value (porcine CYP2E1; [1]) was “did not alter activity”.
O=c1c(O)c(-c2cc(O)c(O)c(O)c2)oc2cc(O)cc(O)c12 [myricetin] was tested, and the “effect of a preincubation step on inhibition of CYP1A” value (porcine CYP1A) was “did not affect”, the Ki (porcine CYP1A; [2]) was 4.4 ± 3.4 µM and the Ki (porcine CYP1A; [3]) was 2.5 ± 0.9 µM. For the same compound, the “effect on CYP2A activity” value (porcine CYP2A) was “did not affect”, the “effect on CYP3A activity” value (porcine CYP3A) was “decreased” and the “reversibility of CYP3A inhibition (effect of a preincubation step)” value (porcine CYP3A) was “reversible inhibition”. For the same compound, the Ki (porcine CYP3A; liver microsomes, pH 7.4, probe 7-benzyloxy-4-trifluoromethylcoumarin (BFC), hepatic microsomes from male pigs) was 113 ± 20.8 µM and the “effect on CYP2E1 activity” value (porcine CYP2E1; [1]) was “did not affect”.
In the case of C[C@@H]1O[C@@H](OC[C@H]2O[C@@H](Oc3c(-c4ccc(O)c(O)c4)oc4cc(O)cc(O)c4c3=O)[C@H](O)[C@@H](O)[C@@H]2O)[C@H](O)[C@H](O)[C@H]1O [rutin], the “effect on CYP1A activity” value (porcine CYP1A) is reported as “did not alter activity”, the “effect on CYP2A activity” value (porcine CYP2A) is reported as “did not alter activity” and the “effect on CYP3A activity” value (porcine CYP3A) is reported as “did not alter activity”. For the same compound, the “effect on CYP2E1 activity” value (porcine CYP2E1; [1]) was “did not alter activity”.
With O=C(O)/C=C/c1ccc(O)cc1 [p-coumaric acid] the “effect on CYP1A activity” value (porcine CYP1A) was “did not alter activity”, the “effect on CYP2A activity” value (porcine CYP2A) was “did not alter activity” and the “effect on CYP3A activity” value (porcine CYP3A) was “did not alter activity”. For the same compound, the “effect on CYP2E1 activity” value (porcine CYP2E1; [1]) was “did not alter activity”.
In the case of O=C(O)/C=C/c1ccc(O)c(O)c1 [caffeic acid], the “effect on CYP1A activity” value (porcine CYP1A) is reported as “did not alter activity”, the “effect on CYP2A activity” value (porcine CYP2A) is reported as “did not alter activity” and the “effect on CYP3A activity” value (porcine CYP3A) is reported as “did not alter activity”. The “effect on CYP2E1 activity” value (porcine CYP2E1; [1]) was “did not alter activity”.
In the case of COc1cc(-c2oc3cc(O)cc(O)c3c(=O)c2O)ccc1O [isorhamnetin], the “effect of a preincubation step on inhibition of CYP1A” value (porcine CYP1A) is reported as “did not affect”, the Ki (porcine CYP1A; [2]) is reported as 10.8 ± 2.8 µM and the Ki (porcine CYP1A; [3]) is reported as 99.9 ± 77.6 µM. For the same compound, the “effect on CYP2A activity” value (porcine CYP2A) was “did not affect”, the “effect on CYP3A activity” value (porcine CYP3A) was “decreased” and the “reversibility of CYP3A inhibition (effect of a preincubation step)” value (porcine CYP3A) was “reversible inhibition”. The Ki (porcine CYP3A; pH 7.4, hepatic microsomes from female pigs) was 93.7 ± 61.3 µM, the Ki (porcine CYP3A; pH 7.4, hepatic microsomes from male pigs) was 71.2 ± 20.2 µM and the “effect on CYP2E1 activity” value (porcine CYP2E1; [1]) was “did not affect”.
O=c1c(O)c(-c2ccc(O)c(O)c2)oc2cc(O)cc(O)c12 [quercetin] was tested, and the “mode of inhibition of CYP1A” value (porcine CYP1A; [4]) was “irreversible inhibition”, the IC50 (porcine CYP1A; pig, liver microsomes, pH 7.4, probe 7-ethoxyresorufin (2 μM), hepatic microsomes from female pigs, with 5 min preincubation with NADPH) was 2.5 µM and the Ki (porcine CYP1A; pig, liver microsomes, pH 7.4, probe 7-ethoxyresorufin (0.1-4 μM; O-deethylation), hepatic microsomes from male pigs) was 0.16 ± 0.03 µM. The “effect on CYP3A activity” value (porcine CYP3A) was “did not affect”, the “effect on CYP2E1 activity” value (porcine CYP2E1; [4]) was “No effect” and the “reversibility of CYP2E1 inhibition (effect of a preincubation step)” value (porcine CYP2E1; 15 min preincubation with NADPH at 37°C, male pigs) was “reversible inhibition”. For the same compound, the Ki (porcine CYP2E1; hepatic microsomes from male pigs, inhibitor 16, 32, 128 μM, p-nitrophenol 0.25-4000 μM) was 94.2 ± 13.5 µM.
